Data reported in patent US11883416B2, “Methods and compositions for the treatment of IL13Ra2—overexpressing cancer” (CONSEJO SUPERIOR DE INVESTIGACIONES CIENTÍFICAS (CSIC), priority 2020, dated 2024).
Entries after “also recorded” stand apart in the source; their conditions may differ.

Columns and labels:
KM12SM cells [1] = test: MTT proliferation assay with IL-13; format: cell-based, human; details: IL-13, Claramine 2 μM
Description: (§1) FIG. 5. […] B) KM12SM cells were subjected to cell adhesion. C) KM12SM and U87MG cells were subjected to MTT assays. The three cell lines were subjected to D) migration and E) invasion assays. All the experiments were done in the presence or absence of IL-13, Claramine and/or anti-IL13Rα2 blocking antibodies.
(§2) Proliferation assays have been previously described. To assess cell survival to oxidative stress, 10^4 cells were seeded per well on 96-well plates and incubated for 24 h in DMEM containing 1% serum in presence of 1 mM H2O2, followed by 1 h incubation with MTT. Cell viability was determined by A560 nm and compared with untreated cells.
(§3) Next, the effect of the PTP1B inhibitor Claramine on the pro-invasive effects of IL-13 was investigated. First, the cellular toxicity of Claramine was studied at different doses. Claramine at 5 μM caused around 50% decrease in cell survival, but had no effect at 2 μM, which was used in the remaining experiments (data not shown). […] The effects of Claramine on cell adhesion, migration, invasion, and, to a minor extent, proliferation mimicked the effects of PTP1B silencing in the three types of cancer cells (FIG. 5 B-E).

U87MG cells [2] = test: MTT proliferation assay with IL-13; format: cell-based, human; details: IL-13, Claramine 2 μM
Description: as §1, §2, §3

KM12SM cells [3] = test: phosphorylation of insulin receptor substrate 1 (IRS-1); format: cell-based, human; details: KM12SM cells treated with IL-13 and Claramine
Excerpt: (§4) As PTP1B silencing or Claramine treatment might modulate glucose and energy homeostasis including insulin signaling, the effect of IL-13 on the glucose uptake and insulin signaling was also investigated. IL-13 increased the glucose uptake in GMB cells but not in CRC cells (data not shown). […] The phosphorylation of insulin receptor substrate 1 (IRS-1) in CRC and GBM cells treated with IL-13 and Claramine was then studied. A strong phosphorylation of IRS-1 in U251 cells treated with IL-13 was found. In contrast, phosphorylation of IRS-1 in KM12SM cells was much weaker, without differences after IL-13 addition. […] Together, these studies support that Claramine effect on tumor cells seems to be independent of the glucose homeostasis.

U251 cells [4] = test: as above; format: cell-based, human; details: U251 cells treated with IL-13 and Claramine
Excerpt: as §4

KM12SM cells [5] = test: colorectal cancer liver metastasis model, intrasplenic inoculation; format: in vivo, Swiss nude mice
Description: (§5) FIGS. 7A-7E show PTP1B inhibition increases survival in CRC and glioblastoma mouse models. […] Murine β-actin amplification was used as a loading control.
(§6) For GBM xenografts, NSG mice were subcutaneously inoculated with U251 cells. Then, mice were treated intraperitoneally with 7 doses of Claramine (every three days) starting day 15 after implantation (a total of 2 mg/kg of body weight). The size of subcutaneous tumors was measured every 2 days. After euthanasia, tumors were isolated and the extracts subjected to Western blot analysis to determine IL13Rα2 and PTP1B activation. Liver homing and metastasis experiments in Swiss nude mice have been described. For CRC metastasis, mice were treated with the same dose of Claramine as above. Animals were weighed to study the effects on food intake and tolerance to the treatment.
Finally, the in vivo effects of PTP1B silencing or inhibition in colorectal cancer and glioblastoma mouse models were investigated. Given the high homology between murine and human IL-13, it was hypothesized that it was unnecessary to treat the mice with exogenous human IL-13 (11). Fora further confirmation, human and murine IL-13 were compared in an invasion experiment. Both IL-13 promoted a similar pro-invasive capacity on human cancer cells (data not shown). Then, the effect of PTP1B silencing on the capacity for liver homing of KM12SM cells inoculated in the spleen of nude mice was examined. As a surrogate marker for homing, human GAPDH was detected in the livers of mice inoculated with control cells but not in those inoculated with PTP1B-silenced cells (FIG. 7A). Then, the effects of Claramine on mice survival in colorectal cancer metastasis were investigated. Forty-eight h after spleen inoculation with CRC cells, mice were treated intraperitoneally (i.p.) with Claramine for two weeks on alternate days, with a total dose of 49 μg/mouse.

U251 cells [6] = test: GBM subcutaneous xenograft tumor growth; format: in vivo, NSG mice
Description: as §5, §6
Next, the in vivo effect of Claramine on GBM tumor growth and intracranial inoculation was investigated. First, mice were subcutaneously inoculated with U251 cells and xenografts were allowed to grow for 15 days before starting i.p. treatment with Claramine (FIG. 7C). Tumors in treated mice stop growing for the duration of the treatment when compared with non-treated mice. […] In addition, the involvement of IL13Rα2 and PTP1B in the tumor growth was studied using xenograft tissues. A significant increase of PTP1B phosphorylation (3-5 times) in vivo compared to cells in culture was found. […] An increased expression of IL13Rα2 in the xenografts was also noticed.

KM12SM cells [7] = test: IL-13-induced cell adhesion to Matrigel; format: cell-based, human; details: IL-13 10 ng/ml, Claramine 2 μM, trifluoroacetate salt
Description: as §1
(§7) Adhesion, wound healing and invasion assays have been previously reported.
as §3

GBM cells = test: 2-NBDG glucose uptake assay; format: cell-based, human; details: data not shown
Description: Flow cytometry was performed as previously described. For IL13Rα2 internalization assays, cells were starved for 3 h, detached with 2 mM EDTA, incubated 30 min with IL-13 at 37° C., primary and secondary antibodies for 30 min at 4° C. and analyzed in the cytofluorimeter as previously described. For glucose uptake determination, cells were incubated with IL-13 and/or Claramine and subjected to the assays using 2-NBDG glucose uptake assays kit (BioVision) according to manufacturer's instructions. Glucose uptake was quantified in the cytofluorimeter.
as §4

KM12SM cells [8] = test: IL-13-triggered migration (wound healing) assay; format: cell-based, human; details: IL-13, Claramine 2 μM, trifluoroacetate salt
Description: as §1, §7, §3

U87MG cells [9] = test: IL-13-triggered migration (wound healing) assay; format: cell-based, human; details: IL-13, Claramine 2 μM, trifluoroacetate salt
Description: as §1, §7, §3

A2780 cells [10] = test: IL-13-triggered migration (wound healing) assay; format: cell-based, human; details: A2780, IL-13, Claramine 2 μM; trifluoroacetate salt
Description: as §1, §7, §3

[11] = format: cell-based; details: data not shown
Description: as §3

KM12SM cells [12] = test: Western blot of pSrc Y530 in IL-13-treated cells; format: cell-based, human; details: 2 μM Claramine, IL13-treated KM12SM
Description: as §1
(§8) Western blot assays were done as previously described.
as §3

U87MG cells [13] = test: Western blot of pSrc Y530 in IL-13-treated cells; format: cell-based, human; details: 2 μM Claramine, IL13-treated U87MG
Description: as §1, §8, §3

A2780 cells [14] = test: Western blot of pSrc Y530 in IL-13-treated cells; format: cell-based, human; details: 2 μM Claramine, IL13-treated A2780
Description: as §1, §8, §3

KM12SM cells [15] = test: IL-13-triggered invasion assay; format: cell-based, human; details: IL-13, Claramine 2 μM, trifluoroacetate salt
Description: as §1, §7, §3

U87MG cells [16] = test: IL-13-triggered invasion assay; format: cell-based, human; details: IL-13, Claramine 2 μM, trifluoroacetate salt
Description: as §1, §7, §3

A2780 cells [17] = test: IL-13-triggered invasion assay; format: cell-based, human; details: A2780, IL-13, Claramine 2 μM; trifluoroacetate salt
Description: as §1, §7, §3

U251 GBM cells = test: Western blot of EGF and IL-13 signaling (pEGFR Y1068, pPTP1B Y66, pSrc Y419); format: cell-based, human
Description: FIG. 6. […] (A) U251 cells were treated with EGF, IL-13 or both, with or without Claramine. Cell extracts were analyzed by western blot to detect pEGFR Y1068, pPTP1B Y66, and pSrc Y419. B) U251 cells silenced for EGFR, IL13Rα2 or control cellswere treated with EGF or IL-13 in the presence or absence of Claramine. Cells were lysed and whole extracts were analyzed by western blot to detect pEGFR Y1068, pPTP1B Y66 and pSrc Y419.
as §8
EGFR is a substrate of PTP1B and might cooperate with IL13Rα2 in GBM invasion. To determine whether PTP1B participates in the modulation of the EGFR pathway besides the IL13Rα2, the effect of Claramine on EGF and IL-13 signaling in GBM was investigated. […] PTP1B Tyr66 was also phosphorylated by EGF and IL-13, indicating the participation of PTP1B in both pathways.

GBM12 PDX = test: intracranial model of GBM; format: in vivo, athymic nude mice
Excerpt: as §5
For intracranial experiments, athymic nude male mice were purchased from Jackson Laboratories. All experiments were approved by the Northwestern University Institutional Animal Care and Use Committee (IACUC). For the intracranial implantation of cannula and tumor cells, 6-8 weeks old […] mice were first anesthetized with a ketamine HCl (25 mg/ml)/xylazine (2.5 mg/ml) cocktail. A previously established surgical procedure was utilized in this study with a small variation reflecting the cannula implantation. For that, a custom-made 26 gauge sterile guide cannula (Plastics One, Roanoke, VA) was installed into the brain through a burr hole at 2 mm depth and secured with tissue glue (3M, St Paul, MN). For the glioma PDX cells implantation, a 33-gauge sterile syringe was inserted into the guide cannula at 3 mm depth following by infusion of 2.5 μl of 10^5 GBM12 cells. The skin incision was closed with surgical glue around the implantation site. The extracranial end of the cannula was then covered with a 33-gauge protection dummy cannula. The surgical procedure was followed with a standard post-surgery care according to the approved protocol. The intracranial injection of Claramine through cannula was done in 4 fractions for a total 4-8 mg/kg starting day 7 after tumor implantation and every 3 days after that. For systemic treatment, Claramine was delivered intravenously in 4 fractions for a total 8, 15 or 30 mg/kg starting day 7 after tumor implantation and every 3 days after that. Sterile 0.9% saline solution served as a negative control in all experiments.
Finally, an intracranial model of GBM using the GBM12 PDX that expresses high amounts of IL13Rα2 was tested. Tumors were implanted intracranially for seven days before starting the treatment with four doses of Claramine for a total of 4 mg/kg or 8 mg/kg (FIG. 7E). The median survival for the treated mice increased up to 36-39 days from 27 days of the control mice.

[18] = MTT assay for survival to oxidative stress (IL-13 promoted cell survival); format: cell-based; details: data not shown
Description: as §2, §3

[19] = U251 cells silenced for EGFR, IL13Rα2 or control, FIG. 6B

## CC(C)CCC[C@@H](C)[C@H]1CC[C@H]2[C@@H]3C[C@@H](NCCCNCCCCNCCCN)C4C[C@@H](O)CC[C@]4(C)[C@H]3CC[C@]12C.O=C(O)C(F)(F)F (stereo partly drawn) [Claramine, (3β, 6β)-6-[[3-[[4-[(3-Aminopropyl)amino]butyl]amino]propyl]amino]-cholestan-3-ol trifluoroacetate salt]
KM12SM cells [1]
  proliferation (MTT): inhibited
U87MG cells [2]
  proliferation (MTT): inhibited
KM12SM cells [3]
  IRS-1 phosphorylation: did not affect
U251 cells [4]
  IRS-1 phosphorylation: did not affect
KM12SM cells [5]; KM12SM intrasplenic, p<0.001
  mice survival (Kaplan-Meier): significantly increased
KM12SM cells [5]; day 100 post-inoculation, total dose 49 μg/mouse i.p.
  state of treated mice at sacrifice: without symptoms of the disease, presence of metastatic nodes or weight loss
KM12SM cells [5]; i.p., two weeks on alternate days, total dose 49 μg/mouse, trifluoroacetate salt
  protection against liver metastases: complete protection; also recorded: complete inhibition
U251 cells [6]; Western blot of tumor extracts
  phosphorylation of PTP1B in xenograft tissues: moderate inhibition
U251 cells [6]; during i.p. treatment with Claramine, trifluoroacetate salt
  toxicity / weight of the animals: remained constant; also recorded: No Claramine toxicity was observed
U251 cells [6]; i.p. treatment starting 15 days after implantation, 7 doses, total 2 mg/kg, trifluoroacetate salt
  tumor growth: significantly inhibited; also recorded: stop growing; also recorded: regression
KM12SM cells [7]
  IL-13-induced cell adhesion to Matrigel: inhibited; also recorded: abolished
GBM cells
  IL-13-increased glucose uptake: did not inhibit
KM12SM cells [8]
  cell migration: inhibit
U87MG cells [9]
  cell migration: inhibit
A2780 cells [10]
  cell migration: inhibit
[11]; Claramine at 2 μM
  effect on cell survival: no effect
[11]; Claramine at 5 μM
  decrease in cell survival: around 50%
KM12SM cells [12]
  phosphorylation of Src Tyr530: preserved
U87MG cells [13]
  phosphorylation of Src Tyr530: preserved
A2780 cells [14]
  phosphorylation of Src Tyr530: preserved
KM12SM cells [15]
  cell invasion: inhibit
U87MG cells [16]
  cell invasion: inhibit
A2780 cells [17]
  cell invasion: inhibit
U251 GBM cells; [19]
  EGFR activation: suppressed
  Src activation: suppressed
U251 GBM cells; U251 cells, FIG. 6A
  activation of EGFR (pEGFR Y1068) by EGF and IL-13: inhibited
  activation of Src (pSrc Y419) by EGF and IL-13: inhibited
GBM12 PDX; GBM12 PDX intracranial, p<0.001, trifluoroacetate salt
  mice survival (Kaplan-Meier), treated versus control: significantly increased; also recorded: statistically significant difference in survival; also recorded: considerable increase
GBM12 PDX; four doses, total of 4 mg/kg or 8 mg/kg, from day 7
  survival up to: 70-72 days post-inoculation
GBM12 PDX; four doses, total of 4 mg/kg or 8 mg/kg, from day 7, control mice 27 days
  median survival: 36 to 39 days
[18]
  IL-13 promoted cell survival: significant reduction
